In patent US12133846B2, “Electrophilic androgen receptor (AR) antagonists for AR downregulation and ferroptosis induction in cancer cells” (priority 2019, dated 2024):
Read-outs that look alike come from different tables or passages of the source.

How the values were obtained:
C4-2 cells [1] = conditions: for potentiation by BSO compared to 2-63, C4-2 cells: drug 2.5 μM, BSO pretreatment 16 h, 24 h
Procedure: (§4) Cell viability was then assessed using an MTT assay.
(§5) PCa cells (6×10^3 cells/well) were seeded into 96-well plates overnight and then treated with indicated compounds at indicated concentrations and time durations. The MTT (3-(4, 5-Dimethylthiazol-2-yl)-2,5-diphenyltetrazolium bromide) assay was performed according to the standard protocol. Briefly, MTT (0.5 mg/mL) was incubated with cells at 37° C. for 3 hours. Supernatant was removed, followed by the addition of dimethyl DMSO (100 μl). After incubation for 30 minutes at 37° C., absorbance was read at 570 nm on a microplate reader.

VCaP cells [2] = test: BSO pretreatment plus drug, MTT viability, VCaP cells; conditions: drug 2.5 μM, BSO pretreatment 16 h, 24 h
Procedure: as §4, §5

VCaP cells [3] = test: MTT viability assay, VCaP cells; format: cell-based; conditions: 72 h, full media, MTT, read-out: IC50, viability of VCaP cells
Source text: (§1) Biological Characterization. ITC-ARi hybrid drugs effectively reduce the viability of PCa cells. By using an MTT assay, it was first examined if the newly synthesized hybrid drugs affect the viability of CRPC-relevant PCa cells. PCa VCaP cells naturally express abundant wild type FL AR as well as AR splice variants (e.g., AR-V7). These cells were, therefore, used as one of the cell culture models in this work to investigate the drug-caused viability loss and AR downregulation.

22Rv1 cells [4] = test: BSO pretreatment plus drug, MTT viability, 22Rv1 cells; conditions: drug 2.5 μM, BSO pretreatment 16 h, 24 h
Procedure: as §4, §5

C4-2 cells [5] = test: MTT viability assay, C4-2 cells; format: cell-based; conditions: 5 μM, 72 h
Source text: as §1

22Rv1 cells [6] = test: MTT viability assay, 22Rv1 cells; format: cell-based; conditions: 5 μM, 72 h
Source text: as §1

[7] = test system: AR transcriptional activity in MDA-kb2 cells; test: cells; format: cell-based; conditions: DHT 1 nM; for suppression of DHT-stimulated luciferase activity: 1-5 μM; for AR inhibition at higher concentrations relative to comparators: 2.5 and 5 μM; for inhibition at 1 µM: MDA-kb2, 1 μM compound, read-out: inhibition of DHT-stimulated luciferase activity
Procedure: MDA-kb2-cell-based ARE luciferase assays were performed to assess the influence of 2-63 and related compounds on AR transcriptional activity. […] Upon androgen stimulation and addition of a luciferase substrate, […], and the intensity is proportional to the extent of AR activation. An agent that either antagonistically competes with DHT for AR binding or reduces the expression of AR diminishes luciferase activity/fluorescence signal in this experimental system. […] 10b (an alcohol) and 11 b (an azide) are synthetic precursors of the ITC hybrid 12b.
Luciferase Assay. […] For all procedures, cells were incubated at CO2 free condition. Steady-Glo® (Promega Corp., Madison, WI) reagent was added to culture media with shaking for 10 min. Samples (100 μL) were transferred to an opaque 96-well white plate, and luminescence was measured using a luminometer.

VCaP cells [8] = test: Ferroptosis rescue/enhancement of 2-63 plus BSO, MTT, VCaP cells; format: cell-based; conditions: for rescue of 2-63 plus BSO-caused viability loss, VCaP cells: BSO 100 μM 16 h, 2-63 2.5 μM 24 h, DFO 100 μM, α-Toc 100 μM, Fer-1 0.5 μM, ZnPP 3 μM
Source text: (§2) It was first investigated if iron chelators or antioxidants could rescue the viability of drug combination-treated cells. […] HO-1 catalyzes the decomposition of heme into carbon monoxide, biliverdin, and Fe^2+. […] Both Fer-1 and the lipophilic antioxidant α-Toc can effectively scavenge radicals in phosphatidylcholine lipid bilayers and break the redox cycle that generates lipid hydroperoxide.

22Rv1 cells [9] = test: Ferroptosis rescue of 2-63 plus BSO, MTT, 22Rv1 cells; format: cell-based; conditions: BSO 100 μM 16 h, 2-63 5 μM 24 h; DFO 100 μM, α-Toc 100 μM, Fer-1 0.5 μM, ZnPP 3 μM
Source text: as §2

VCaP cells [10] = test: 3-79 plus BSO, MTT viability, VCaP cells; format: cell-based; conditions: for rescue of 3-79 plus BSO-induced viability loss, VCaP cells: 3-79 10 μM, BSO 100 μM, DFO 100 μM, α-Toc 100 μM, Fer-1 0.5 μM
Procedure: 3-79 and BSO effectively reduce the viability of VCaP cells. […] The viability loss of VCaP cells is rescued by antioxidants and iron chelators. […] Data (n=6-8) represent mean±SD obtained from MTT assay. Statistical significance was assessed by using two-tailed Student's t-tests. ***, P<0.001.

Hsp90, Hsp70, HO-1 = test: Western blotting of Hsp90, Hsp70 and HO-1 in VCaP cells; format: cell-based; conditions: 16 h, 5 and 15 μM
Procedure: (§3) Western Blotting. […] Proteins in cell lysates (40 μg) were separated using electrophoresis on SDS-PAGE and transferred onto PVDF (polyvinylidenedifluoride) membranes. Membranes were blocked in 5% fat-free milk followed by incubation with primary antibodies overnight at 4° C., and the secondary horseradish peroxidase-conjugated anti-rabbit or anti-mouse antibodies. The blots were developed in the Enhanced Chemiluminescence mixture and detected by ImageQuant™ LAS 4000 imaging system (GE). Density of protein bonds were calculated and analyzed by using imageJ software downloaded from the National Institute of Health website.

[11] = test system: acetylation of α-tubulin and histone H3 (markers for HDAC6 and nuclear HDAC inhibition); test: Western blotting of acetylation markers in VCaP cells; format: cell-based; conditions: 16 h, 2-63 and 12b 5 and 15 μM, SAHA 1 μM; for α-tubulin acetylation: SFN 15 μM
Procedure: as §3

[12] = test system: AR, AR-V7, c-Myc, HO-1, Hsp70; test: Western blotting under BSO combination, VCaP cells; format: cell-based
Procedure: as §2, §3

C4-2 cells [13] = conditions: 5 μM, DHT 1 nM, charcoal stripped FBS, 6 days
Procedure: The medium and drug were refreshed every two days.
The anti-PCa potential of 2-63 was further characterized by assessing its inhibitory effects on DHT-stimulated C4-2 cell growth. […] C4-2 cells were cultured in charcoal-stripped, steroid-free medium and cells were stimulated with androgen.

## CC(=O)NC(CSC(=S)NCCc1ccccc1)C(=O)O (stereo not shown) [PEITC-NAC, reference compound]
C4-2 cells [1]
  potentiation by BSO compared to 2-63, C4-2 cells: more limited
VCaP cells [2]
  potentiation by BSO compared to 2-63, VCaP cells: more limited
VCaP cells [3]
  IC50: 10.1 µM
22Rv1 cells [4]
  potentiation by BSO compared to 2-63, 22Rv1 cells: more limited
C4-2 cells [5]
  relative potency in viability reduction, C4-2 cells: 12b>2-63>PEITC-NAC
22Rv1 cells [6]
  relative potency in viability reduction, 22Rv1 cells: 12b>2-63>PEITC-NAC

## CC1(C)C(=O)N(c2ccc(C#N)c(C(F)(F)F)c2)C(=S)N1c1ccc(CCCCCCO)nc1 [10b, 4-(3-(6-(6-Hydroxyhexyl)pyridin-3-yl)-4,4-dimethyl-5-oxo-2-thioxoimidazolidin-1-yl)-2-(trifluoromethyl) benzonitrile]
[7]
  suppression of DHT-stimulated luciferase activity: decreased luciferase activity in a dose-dependent manner
  AR inhibition at higher concentrations relative to comparators: Enz-comparable
  inhibition at 1 µM: 60%

## CC1(C)C(=O)N(c2ccc(C#N)c(C(F)(F)F)c2)C(=S)N1c1ccc(CCCCN=C=S)nc1 [12a, 4-(3-(6-(4-Isothiocyanatobutyl)pyridin-3-yl)-4,4-dimethyl-5-oxo-2-thioxoimidazolidin-1-yl)-2-(trifluoromethyl) benzonitrile]
VCaP cells [3]; Homo sapiens, VCaP
  IC50: 4.85 µM

## C=CC1=C(C)c2cc3[n-]c(cc4[n-]c(cc5nc(cc1n2)C(C)=C5C=C)c(C)c4CCC(=O)O)c(CCC(=O)O)c3C.[Zn+2] [ZnPP, Zinc(II) protoporphyrin IX]
VCaP cells [8]
  rescue of 2-63 plus BSO-caused viability loss, VCaP cells: notable cytoprotective effects
22Rv1 cells [9]
  rescue of 2-63 plus BSO-caused viability loss, 22Rv1 cells: notable cytoprotective effects

## CN(C)C/C=C/C(=O)Nc1ccc(N2C(=S)N(c3ccc(C#N)c(C(F)(F)F)c3)C(=O)C2(C)C)cc1F [3-79, (E)-N-(4-(3-(4-cyano-3-(trifluoromethyl)phenyl)-5,5-dimethyl-4-oxo-2-thioxoimidazolidin-1-yl)-2-fluorophenyl)-4-(dimethylamino)but-2-enamide]
VCaP cells [10]; VCaP, 3-79 10 μM plus BSO 100 μM
  potency of 3-79 in viability suppression with BSO: increased under GSH deficient conditions

## C[S+]([O-])CCCCN=C=S (stereo not shown) [SFN, sulforaphane, reference compound]
Hsp90, Hsp70, HO-1
  HO-1 protein level: dose-dependently upregulated
  Hsp70 protein level: significantly induced
  Hsp90 protein level: did not change
[11]
  α-tubulin acetylation: upregulated

## O=C(CCCCCCC(=O)Nc1ccccc1)NO [SAHA, suberoylanilide hydroxamic acid, reference compound]
[11]
  histone H3 acetylation: induced notable global acetylation
  α-tubulin acetylation: induced notable global acetylation

## ferric ammonium citrate
C4-2 cells [1]; ferric iron 25 μM, BSO 100 μM, 2-63 0.6-5 μM
  effect of exogenous iron on BSO plus 2-63 combination, C4-2 cells: significantly enhanced the suppressive effects
VCaP cells [8]; ferric ammonium citrate 25 μM, BSO 100 μM, 2-63 1 μM
  effect of exogenous iron on BSO plus 2-63 combination, VCaP cells: exacerbated the lethal effect

## CCOC(=O)c1ccc(NC2CCCCC2)c(N)c1 [Fer-1, ferrostatin-1]
VCaP cells [8]
  rescue of 2-63 plus BSO-caused viability loss, VCaP cells: rescued
22Rv1 cells [9]
  rescue of 2-63 plus BSO-caused viability loss, 22Rv1 cells: rescued
VCaP cells [10]
  rescue of 3-79 plus BSO-induced viability loss, VCaP cells: rescued
[12]; DFO 100 μM, Fer-1 1 μM, BSO 100 μM, 2-63 2.5 μM, 24 h
  rescue of AR/AR-V7 under 2-63 plus BSO, VCaP cells: failed to rescue AR/AR-V7

## Cc1c(C)c2c(c(C)c1O)CC[C@@](C)(CCC[C@H](C)CCC[C@H](C)CCCC(C)C)O2 [α-Toc, α-tocopherol]
VCaP cells [8]
  rescue of 2-63 plus BSO-caused viability loss, VCaP cells: rescued
22Rv1 cells [9]
  rescue of 2-63 plus BSO-caused viability loss, 22Rv1 cells: rescued
VCaP cells [10]
  rescue of 3-79 plus BSO-induced viability loss, VCaP cells: rescued

## CNC(=O)c1ccc(N2C(=S)N(c3ccc(C#N)c(C(F)(F)F)c3)C(=O)C2(C)C)cc1F [Enz, 4-(3-(4-cyano-3-(trifluoromethyl)phenyl)-5,5-dimethyl-4-oxo-2-thioxoimidazolidin-1-yl)-2-fluoro-N-methyl benzamide, reference compound]
[12]; VCaP, Enz 10 μM, with or without BSO 100 μM, except upregulating AR-V7
  expression of examined cellular markers (AR, c-Myc, HO-1): did not affect
C4-2 cells [13]
  viability reduction of DHT-stimulated C4-2 cells: 25%

## CC1(C)C(=O)N(c2ccc(C#N)c(C(F)(F)F)c2)C(=S)N1c1ccc(CCCCCCN=[N+]=[N-])nc1 [11b, 4-(3-(6-(6-Azidohexyl)pyridin-3-yl)-4,4-dimethyl-5-oxo-2-thioxoimidazolidin-1-yl)-2-(trifluoromethyl) benzonitrile]
C4-2 cells [1]
  potentiation by BSO compared to 2-63, C4-2 cells: more limited
VCaP cells [2]
  potentiation by BSO compared to 2-63, VCaP cells: more limited
[7]
  suppression of DHT-stimulated luciferase activity: decreased luciferase activity in a dose-dependent manner
  AR inhibition at higher concentrations relative to comparators: Enz-comparable
  inhibition at 1 µM: 60%
22Rv1 cells [4]
  potentiation by BSO compared to 2-63, 22Rv1 cells: more limited

## C[C@]12CCC(=O)C[C@@H]1CC[C@@H]1[C@@H]2CC[C@]2(C)[C@@H](O)CC[C@@H]12 [DHT, 5α-dihydrotestosterone, reference compound]
[7]; 24 h
  increase of luciferase activity: 8.6 fold
